# Assay results as given in patent US20060100263A1, “Antipyretic compositions and methods” (priority 2004, published 2006).
# Structures can show the parent of a compound that is named as a salt. Marks after values point to notes of the source that are not given here.
# What was measured:
# [1] = yeast-induced pyresis model in rats; type: in vivo, rat
# Protocol: (§1) Groups of 6 rats were injected subcutaneously with saline solution or 40% brewers' yeast 18 hours prior to oral administration of bicifadine HCl or aspirin. The yeast was suspended in 0.85% saline and doses in a volume of 10 ml/kg. Rectal temperatures were recorded with a YSI 43TA telethermometer just prior to oral drug administration, and hourly for 3-4 hours. The post-treatment temperatures were compared to the initial temperatures of each group. Control animals were treated with vehicle and tested concurrently. In FIG. 1, the solid line represents the mean rectal temperature of normal rats (99.5° F.) and the standard error of that measure (0.1° F.) is indicated by the dashed lines.
# (§2) The results shown in FIG. 1 indicate that rats treated with brewers' yeast 18 hours prior to drug administration develop a febrile response, manifested as a mean rectal temperature of 101.1° F. In contrast, normal rats treated only with vehicle have a rectal temperature of 99.5° F., 1.6° F. lower than the yeast-treated rats.
# [2] = average body temperature of normal rats; type: in vivo, rat; conditions: for Mean Rectal Temperature at Indicated Hours Post-Treatment: 100 mg/kg PO
# Protocol: as §1, §2
# [3] = oral temperature of normal human subjects; type: in vivo; conditions: 600 mg PO single dose; for Oral Temperature at Indicated Times of Treatment: normal humans
# Protocol: Normal humans received either a placebo or 600 mg of bicifadine HCl (PO). Oral temperature readings were taken as part of an assessment of vital signs before and after administration of a single dose.
# Oral temperature readings were taken as part of an assessment of vital signs before and after administration of a single dose of bicifadine to normal humans. The placebo group consisted of 150 subjects, while the bicifadine HCl group consisted of 151 individuals.
# [4] = tested on: α1 adrenergic receptor; experiment: [3H]prazosin binding, rat cerebral cortex preparation
# Protocol: At the end of 60 min, the assay was terminated by vacuum filtration and the amount of radioactivity deposited on the filter measured by scintillation counting.
# [5] = tested on: α2 adrenergic receptor; experiment: α2 adrenergic receptor binding
# [6] = molecular target: 5-HT2A serotonin receptor (Homo sapiens, UniProt P28223); experiment: radioligand binding to 5-HT2A serotonin receptor
# 5-HT2A serotonin receptor, sequence (P28223 whole entry): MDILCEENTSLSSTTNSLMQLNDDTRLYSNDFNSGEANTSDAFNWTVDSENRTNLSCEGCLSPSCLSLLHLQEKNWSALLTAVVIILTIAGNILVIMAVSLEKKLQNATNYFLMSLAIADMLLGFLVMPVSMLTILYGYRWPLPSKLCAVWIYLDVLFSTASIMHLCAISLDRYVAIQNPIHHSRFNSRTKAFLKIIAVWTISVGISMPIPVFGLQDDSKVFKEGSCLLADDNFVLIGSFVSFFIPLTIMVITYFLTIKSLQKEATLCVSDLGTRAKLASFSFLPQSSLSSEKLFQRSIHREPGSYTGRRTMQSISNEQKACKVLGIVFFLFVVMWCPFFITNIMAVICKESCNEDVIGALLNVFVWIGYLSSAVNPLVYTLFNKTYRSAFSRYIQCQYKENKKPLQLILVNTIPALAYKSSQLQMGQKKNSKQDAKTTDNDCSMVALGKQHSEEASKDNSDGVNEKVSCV
# [7] = blood pressure in human subjects; type: in vivo
# [8] = molecular target: recombinant human cyclooxygenase1 (COX1) (Homo sapiens, UniProt P23219); experiment: COX1 PGE2 synthesis assay; conditions: 0.1, 1, or 10 μM
# recombinant human cyclooxygenase1 (COX1), sequence (P23219 24-599): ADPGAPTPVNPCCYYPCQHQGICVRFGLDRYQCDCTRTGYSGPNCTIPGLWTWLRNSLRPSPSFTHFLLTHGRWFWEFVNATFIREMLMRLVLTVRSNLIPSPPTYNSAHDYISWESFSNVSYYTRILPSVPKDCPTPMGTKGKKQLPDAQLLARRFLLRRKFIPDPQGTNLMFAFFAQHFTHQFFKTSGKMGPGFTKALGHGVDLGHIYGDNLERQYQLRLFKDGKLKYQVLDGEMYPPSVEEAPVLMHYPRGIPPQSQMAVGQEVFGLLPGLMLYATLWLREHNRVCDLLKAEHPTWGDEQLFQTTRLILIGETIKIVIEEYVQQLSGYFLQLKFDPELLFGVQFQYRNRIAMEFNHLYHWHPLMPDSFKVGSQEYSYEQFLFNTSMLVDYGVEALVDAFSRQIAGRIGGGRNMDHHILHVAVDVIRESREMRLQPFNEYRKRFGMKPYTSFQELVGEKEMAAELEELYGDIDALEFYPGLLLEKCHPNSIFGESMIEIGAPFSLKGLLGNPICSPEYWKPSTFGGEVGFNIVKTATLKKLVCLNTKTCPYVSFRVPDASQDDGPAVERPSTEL
# Protocol: The assay mixture was incubated (10 min at 25° C. for COX1, 5 min-at 22° C. for COX2), then stopped and the amount of reaction product (PGE2) formed was measured by an enzyme-linked immunosorbent assay.
# [9] = molecular target: T1, recombinant human cyclooxygenase2 (COX2) (Homo sapiens, UniProt P35354); experiment: COX2 PGE2 synthesis assay; conditions: 0.1, 1, or 10 μM
# T1 sequence (P35354 18-604): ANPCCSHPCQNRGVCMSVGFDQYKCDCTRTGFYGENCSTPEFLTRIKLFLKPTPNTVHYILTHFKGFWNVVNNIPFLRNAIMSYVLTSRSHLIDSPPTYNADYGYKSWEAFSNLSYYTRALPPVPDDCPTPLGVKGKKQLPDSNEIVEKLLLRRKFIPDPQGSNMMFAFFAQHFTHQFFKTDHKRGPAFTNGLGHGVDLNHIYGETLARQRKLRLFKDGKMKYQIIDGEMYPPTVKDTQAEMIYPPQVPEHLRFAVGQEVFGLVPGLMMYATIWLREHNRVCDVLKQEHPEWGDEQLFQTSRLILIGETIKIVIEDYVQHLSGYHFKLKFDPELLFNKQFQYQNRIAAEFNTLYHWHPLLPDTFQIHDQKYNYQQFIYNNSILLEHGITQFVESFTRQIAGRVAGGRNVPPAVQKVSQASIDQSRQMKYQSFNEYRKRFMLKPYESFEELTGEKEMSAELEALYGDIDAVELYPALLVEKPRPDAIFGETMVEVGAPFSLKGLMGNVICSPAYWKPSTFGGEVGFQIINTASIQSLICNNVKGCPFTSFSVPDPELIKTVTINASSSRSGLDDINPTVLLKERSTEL
# Protocol: This was determined in assays using the rate limiting enzyme for prostaglandin synthesis, recombinant human cyclooxygenasel (COX1) and cyclooxygenase2 (COX2) expressed in Sf9 cells using a modified technique of Glaser et al (1995). These cells were incubated with arachidonic acid as the substrate (4, and 2 μM, respectively) and 0.1, 1, or 10 μM concentrations of bicifadine HCl in a suitable assay buffer. The assay mixture was incubated (10 min at 25° C. for COX1, 5 min-at 22° C. for COX2), then stopped and the amount of reaction product (PGE2) formed was measured by an enzyme-linked immunosorbent assay.
smiles,measurement,setting,value
"Cc1ccc([C@]23CNC[C@H]2C3)cc1 (racemic) [Bicifadine HCl, (±)-1-(4-methylphenyl)-3-azabicyclo[3.1.0]hexane hydrochloride]",rectal temperature of yeast-fevered rats,"[1]; 50 mg/kg PO, by the first hour after administration, vs pre-treatment temperature",significantly reduced rectal temperature
same,duration of antipyretic effect,[1]; 100 mg/kg PO,4 h
same,rectal temperature of yeast-fevered rats,"[1]; 100 mg/kg PO, normal rat temperature 99.5 °F",decrease rectal temperature to levels at or below normal
same,antipyretic potency compared with aspirin,[1]; aspirin 200 mg/kg PO,more potent antipyretic than aspirin
same,effect on rectal temperature of normal rats (hypothermia),[2],did not consistently lower the rectal temperature of normal rats
same,Mean Rectal Temperature at Indicated Hours Post-Treatment,[2]; 0 h,98.9 ° F.
same,Mean Rectal Temperature at Indicated Hours Post-Treatment,[2]; 1 h,97.9* ° F.
same,Mean Rectal Temperature at Indicated Hours Post-Treatment,[2]; 2 h,98.3 ° F.
same,Mean Rectal Temperature at Indicated Hours Post-Treatment,[2]; 3 h,98.2 ° F.
same,Mean Rectal Temperature at Indicated Hours Post-Treatment,[2]; 4 h,97.5 ° F.
same,effect on normal human oral temperature (hypothermia),[3],did not consistently lower normal human oral temperature
same,Oral Temperature at Indicated Times of Treatment,[3]; 0.5 hr,98.1 ° F.
same,Oral Temperature at Indicated Times of Treatment,[3]; 1 hr,98.1 ° F.
same,Oral Temperature at Indicated Times of Treatment,[3]; 2 hr,98.1 ° F.
same,Oral Temperature at Indicated Times of Treatment,[3]; 3 hr,98.0 ° F.
same,Oral Temperature at Indicated Times of Treatment,[3]; 4 hr,98.1 ° F.
same,Oral Temperature at Indicated Times of Treatment,[3]; 5 hr,98.2 ° F.
same,Oral Temperature at Indicated Times of Treatment,[3]; 6 hr,98.2 ° F.
same,Oral Temperature at Indicated Times of Treatment,[3]; Follow-up,97.8 ° F.
same,Oral Temperature at Indicated Times of Treatment,[3]; Pre-Dose,98.1 ° F.
same,occupying binding sites on α1 adrenergic receptor,[4],capable of occupying binding sites
same,Ki,"[4]; 0.25 nM [3H]prazosin, 60 min at 22° C.",1 µM
same,occupying binding sites on α2 adrenergic receptor,[5],capable of occupying binding sites
same,inhibition of radioligand binding to 5-HT2A serotonin receptor,[6],significantly inhibited radioligand binding
same,alterations in blood pressure,[7],did not cause significant alterations in blood pressure
same,inhibitory effect on PGE2 synthesis by COX1,[8],no significant inhibitory effect
same,inhibitory effect on PGE2 synthesis by COX2,[9],no significant inhibitory effect
